Laboratory results from ChEMBL document CHEMBL3507680, “University of Dundee, Gates Library screen for HepG2 cell viability”.

Assay: Human HepG2 cell viability assay in 384 well format
Type: toxicity, cell-based
Design: dose 125 nL, time 70.5 hour; concentration not given beside the values
Conditions: HepG2 cells, read-out: Inhibition

| Compound | cytotoxicity at 70.5 h [%] |
| --- | --- |
| CCN(Cc1cccc(-c2ccncc2)c1)S(N)(=O)=O | -2.79 |
| COc1cc(-c2cc(=O)[nH]cn2)cc(OC)c1OC | -5.45 |
| COCCN1CCC2(CCN(Cc3cccs3)CC2)C1=O | 16.2 |
| CN(CC(F)(F)F)C(=O)CNC(=O)Cc1cccc(O)c1 | 1.12 |
| Cc1nccn1C1CCCN(C(=O)c2cccc(OCC(N)=O)c2)C1 (configuration not stated) | -10.4 |
| COCCN1CCN(CC(C)(O)c2cccc(C(F)(F)F)c2)CC1 (configuration not stated) | -12.6 |
| Cc1nc(CN2C(=O)C[C@H]3[C@H]2CCN3C2CCOC2)cs1 (some centres not stated) | 28.1 |
| O=C(NCC1CCCCO1)c1ccc(-c2cccs2)[nH]c1=O (configuration not stated) | -0.0205 |
| CC(=O)N1CCCN(C(=O)CCc2c(C)noc2C)CC1 | -16.4 |
| CC1CCN(C(=O)c2cccc3ncccc23)CC1 | 4.77 |
| O=S(=O)(c1c(Cl)nc2sccn12)N1CCC2(CCNCC2)C1 | -6.41 |
| Cc1ccc2c(c1)C1(CC2)CCN(c2nncs2)CC1 | -4.57 |
| CC(C)Nc1ncccc1C(=O)NC1CC(=O)N(CC(F)(F)F)C1 (configuration not stated) | -2.71 |
| CN(C)CCO[C@H]1CN(Cc2cccc(C#N)c2)[C@@H]2COC[C@H]12 | -1.49 |
| CCCN(C(=O)CN1CCN(CC(C)O)CC1)C1=CCCCC1 (configuration not stated) | 35.9 |
| COc1ccc(CNC(=O)CCSCc2csc(C)n2)cn1 | -4.07 |
| Fc1ccc(CN2CCOC[C@H](Oc3cccnc3)C2)cc1 | 10.5 |
| Cc1ccc(Cl)cc1-n1nnnc1C1(N2CCCC2)CCCC1 | -11.5 |
| Cc1cc(=O)[nH]cc1C(=O)N1CCN(C)c2ccccc2C1 | -0.391 |

| Compound | cytotoxicity at 70.5 h [%] |
| --- | --- |
| c1ccc(CN2CCC3(CC2)CN(c2ccccn2)CCO3)nc1 | -5.77 |
| CCn1ncnc1CN1CCC(CNC(=O)c2cccc(C)c2)C1 (configuration not stated) | -15.4 |
| Cc1nccc(CN2CCC(c3nnsc3S(C)(=O)=O)CC2)n1 | -21.3 |
| COCC(=O)NCc1ccc(-c2ccccc2C(=O)O)cn1 | -3.58 |
| COc1cc(C(=O)NS(=O)(=O)c2cccc(C#N)c2)cc(OC)c1C | -9.63 |
| COc1ccc2c(c1)OC1(CCN(Cc3cccc(C)c3)CC1)CC2=O | -2.19 |
| Cc1ccc(CN(C)C(C(=O)O)c2ccc3c(c2)OCO3)o1 (configuration not stated) | -7.76 |
| Cc1cc(C)n(CC2CCCCN2CC(=O)Nc2nccs2)n1 (configuration not stated) | -5.53 |
| CCC(=O)N1CCCN(C(=O)C2SCCc3sccc32)CC1 (configuration not stated) | 3.13 |
| Clc1ccc(CN(CCN2CCOCC2)Cc2cccnc2)c(Cl)c1 | -5.57 |
| CC(C)n1ccnc1CN1CCCN(C(=O)c2cccnc2O)CC1 | 23.5 |
| Cc1cc(N2CCC(NC(C)Cc3ccsc3)CC2)nc(C)n1 (configuration not stated) | -2.86 |
| Cc1nc(C2CCCN2Cc2cc(Cl)c3c(c2)OCO3)no1 (configuration not stated) | -4.26 |
| COc1cccc([C@H]2CN(CCCS(=O)(=O)N(C)C)C[C@@H]2N)c1 | -3.42 |
| CC1CCCN(S(=O)(=O)N2CCOC3(CCCC3)C2)C1 (configuration not stated) | 10.1 |
| CNC(=O)[C@@H]1[C@@H](c2ccccc2)CN2CCN(Cc3cc(C)no3)C[C@H]12 | -4.59 |
| Cc1ccc2c(c1)c(CNC(C)Cn1nc(C)cc1C)nn2C (configuration not stated) | 2.8 |
| Cc1n[nH]c(C)c1C1CCCN1C(=O)NCCSC(C)(C)C (configuration not stated) | -7.87 |
| CN1Cc2c(C(=O)NCC3CCCO3)ncn2-c2ccccc2S1(=O)=O (configuration not stated) | -0.787 |

| Compound | cytotoxicity at 70.5 h [%] |
| --- | --- |
| COCCN(Cc1ccoc1)C(=O)c1ccc(Cl)s1 | -6.8 |
| CC(C)(C(=O)NCC(=O)NC1CC1)c1ccccc1F | 2.62 |
| Cc1cc(C(=O)NC(COCC(C)C)c2ccco2)no1 (configuration not stated) | -1.3 |
| CCN(C)c1ccc(CNS(=O)(=O)CC2CCCO2)cc1F (configuration not stated) | -16 |
| Cc1nccc([C@@H]2C[C@@H]3CCN(S(=O)(=O)N(C)C)C[C@H]3O2)n1 | 1.05 |
| Cc1ccc(OCC2CCCN(C(=O)CCn3ccccc3=O)C2)cc1 (configuration not stated) | 0.753 |
| O=C(NCCN1CCCS1(=O)=O)c1scnc1Cl | -24.6 |
| CCCNC(=O)CSc1nnc2[nH]c(=O)cc(CC)n12 | 11.1 |
| CCC1CCCCCN1C(=O)c1ccc(N2CCC(O)CC2)cc1 (configuration not stated) | -1.83 |
| CN(C)CCN1CCC(NC2CSCCc3ccccc32)CC1 (configuration not stated) | -7.29 |
| Cn1nccc1C(=O)N1CCOC(Cc2cccnc2)C1 (configuration not stated) | 16 |
| CC(=O)N(C)c1nc(CN2CCCCC2Cn2cncn2)cs1 (configuration not stated) | -6.38 |
| CS(=O)(=O)c1ccc(NC(=O)NC2(c3ccccc3)CCC2)cc1 | -8.88 |
| Cc1nc(Nc2nncs2)cc(C2CNC2)n1 | -5.34 |
| Cc1ccc(CN(C)C(=O)c2scnc2C)cc1 | -3.98 |
| Cc1cccc(C(=O)N2CCCCC2c2[nH]ncc2S(C)(=O)=O)c1 (configuration not stated) | -2.12 |
| COCC(=O)N1C[C@H]2CCC[C@@]2(COC)C1 | -5.02 |
| O=c1c(CN2CCSCC2)coc(O)c1CN1CCCC1 | 29.9 |
| O=C(NCCNC(=O)C1CC1)c1cnc(-c2ccccc2)nc1 | 16.6 |
